Source: patent US10975287B2, “Heterocyclic amides useful as protein modulators” (GlaxoSmithKline Intellectual Property Development Limited, priority 2017, dated 2021)
Read-outs that look alike come from different tables or passages of the source.

Assays:
Full-length human STING = tested on: T1, Full-length human STING; format: cell-based
T1 construct: Full-length human STING (Gene ID 340061); expressed in transfected cells; host or cells: HEK293T
Experimental: Functional Assay III (HEX WT agonist assay): Activation of STING in cells may be determined using a luciferase reporter assay in human embryonic kidney cells (HEK293T) co-transfected with plasmids expressing STING and the enzyme firefly luciferase driven by the interferon stimulated response element promoter (pISRE-Luc) (Agilent Technologies). […] Transfections were prepared using a cell suspension with Fugene® 6 following the manufacturer's instructions (3:1 Fugene®:DNA). […] of the transfection suspension was dispensed into wells of a 384-well plate containing 250 nL of a compound of Formula (I). […] Control wells expected to generate maximal activation of STING were cotransfected with a cGAS expression plasmid. Plates were sealed and incubated for 24 hours at 37° C. The expression of firefly luciferase was processed using Steady-Glo® luciferase assay system (Promega) and was analyzed using a standard laboratory luminescence plate reader. Data was normalized to luminescence response in the presence of cGAS, was plotted as a function of compound concentration, and fit using a standard model of receptor activation to derive the pEC50.

[1] = tested on: C-terminal Domain (CTD) of human STING; details: 500 pM STING, 100 nM Alexa488 probe, 15 min at room temperature
[2] = HEK293T co-transfected with STING and pISRE-Luc, 24 hours at 37° C., normalized to cGAS response

Structure (SMILES)	HEK assay (pEC50) (Full-length human STING; [2])	FRET assay (pIC50) [1]	HEK assay (pEC50) (Full-length human STING)
CCn1nc(C)cc1C(=O)Nc1nc2cc(C(N)=O)cc(OC)c2n1CCC(C)C [Example 27, (1-ethyl-3-methyl-1H-pyrazole-5-carboxamido)-1-isopentyl-7-methoxy-1H-benzo[d]imidazole-5-carboxamide]	5.5		
C=CCn1c(NC(=O)c2cc(C)nn2CC)nc2cc(C(N)=O)ccc21 [Example 2, 1-allyl-2-(1-ethyl-3-methyl-1H-pyrazole-5-carboxamido)-1H-benzo[d]imidazole-5-carboxamide]	4.5	4.6	
CCCn1c(NC(=O)c2cc(CC)nn2CC)nc2cc(C(N)=O)cc(OC)c21 [Example 57, 2-(1,3-diethyl-1H-pyrazole-5-carboxamido)-7-methoxy-1-propyl-1H-benzo[d]imidazole-5-carboxamide]	5.5		
C=CCn1c(NC(=O)c2cc(C)nn2CC)nc2cc(C(N)=O)cc(OCCCO)c21 [Example 4, 1-Allyl-2-(1-ethyl-3-methyl-1H-pyrazole-5-carboxamido)-7-(3-hydroxypropoxy)-1H-benzoylimidazole-5-carboxamide]	4.5	4.9	
CCCn1c(NC(=O)c2cc(C)nn2CC)nc2cc(C(N)=O)cc(OC)c21 [Example 3, 2-(1-ethyl-3-methyl-1H-pyrazole-5-carboxamido)-7-methoxy-1-propyl-1H-benzo[d]imidazole-5-carboxamide]	6	5.5	
CCCCn1c(NC(=O)c2cc(C)nn2CC)nc2cc(C(N)=O)cc(OC)c21 [Example 24, 1-butyl-2-(1-ethyl-3-methyl-1H-pyrazole-5-carboxamido)-7-methoxy-1H-benzo[d]imidazole-5-carboxamide]	6.0		
CCCn1c(NC(=O)c2cc(C)nn2CC)nc2c(OC)c(C(N)=O)ccc21 [Example 30, 2-(1-ethyl-3-methyl-1H-pyrazole-5-carboxamido)-4-methoxy-1-propyl-1H-benzo[d]imidazole-5-carboxamide]		5.0	
CCn1nc(C)cc1C(=O)Nc1nc2cc(C(N)=O)cc(OC)c2n1CCCNC(=O)OCc1ccccc1 [Example 53, benzyl (3-(5-carbamoyl-2-(1-ethyl-3-methyl-1H-pyrazole-5-carboxamido)-7-methoxy-1H-benzo[d]imidazol-1-yl)propyl)carbamate]			6.2
C=CCn1c(NC(=O)c2cc(C)nn2CC)nc2cc(C(N)=O)cc(OC)c21 [Example 14, 1-allyl-2-(1-ethyl-3-methyl-1H-pyrazole-5-carboxamido)-7-methoxy-1H-benzo[d]imidazole-5-carboxamide]	5.6	<3.9	
CCn1nc(C)cc1C(=O)Nc1nc2cc(C(N)=O)cc(OC(C)C)c2n1CCCN1CCOCC1 [Example 37, 2-(1-ethyl-3-methyl-1H-pyrazole-5-carboxamido)-7-isopropoxy-1-(3-morpholinopropyl)-1H-benzo[d]imidazole-5-carboxamide]		5.5	
CCCn1c(NC(=O)c2cc(C)nn2CC)nc2cc(C(N)=O)cc(OCCCO)c21 [Example 13, 2-(1-ethyl-3-methyl-1H-pyrazole-5-carboxamido)-7-(3-hydroxypropoxy)-1-propyl-1H-benzo-[d]imidazole-5-carboxamide]	5.4		
CCn1nc(C)cc1C(=O)Nc1nc2cc(C(N)=O)cc(OC)c2n1CCCCNC(=O)OC(C)(C)C [Example 17, tert-butyl (4-(5-carbamoyl-2-(1-ethyl-3-methyl-1H-pyrazole-5-carboxamido)-7-methoxy-1H-benzo[d]imidazol-1-yl)butyl)carbamate]	6.1		
CCn1nc(C)cc1C(=O)Nc1nc2cc(C(N)=O)cc(OC)c2n1CCCN1CCOCC1 [Example 9, 2-(1-ethyl-3-methyl-1H-pyrazole-5-carboxamido)-7-methoxy-1-(3-morpholinopropyl)-1H-benzo[d]imidazole-5-carboxamide]	5.1	5.1	
CCn1nc(C)cc1C(=O)Nc1nc2cc(C(N)=O)cc(OC)c2n1CCCc1cccnc1 [Example 50, 2-(1-ethyl-3-methyl-1H-pyrazole-5-carboxamido)-7-methoxy-1-(3-(pyridin-3-yl)propyl)-1H-benzoylimidazole-5-carboxamide]		5.3	
CCn1nc(C)cc1C(=O)Nc1nc2cc(C(N)=O)ccc2n1C [Example 1, 2-(1-ethyl-3-methyl-1H-pyrazole-5-carboxamido)-1-methyl-1H-benzo[d]imidazole-5-carboxamide]	4.4	4.4	
CCCn1c(NC(=O)c2cc(C)nn2CC)nc2cc(C(N)=O)cc(CN3CCOCC3)c21 [Example 41, 2-(1-ethyl-3-methyl-1H-pyrazole-5-carboxamido)-7-(morpholinomethyl)-1-propyl-1H-benzoylimidazole-5-carboxamide]		5.4	
